In patent US11491120B2, “Pharmacological prophylactics against stress-induced affective disorders in females” (The Trustees of Columbia University in the City of New York, priority 2017, dated 2022):
Entries after “also recorded” stand apart in the source; their conditions may differ.

How the values were obtained:
[1] = system: female 129S6/SvEv mice; test: Elevated plus maze (EPM); format: in vivo, mouse; details: 10 mg/kg, 1 week prophylactic drug, learned helplessness stress
Description: The EPM was administered as previously described (58), with the exception that videos were scored using ANY-maze behavioral tracking software (Stoelting Co., Wood Dale, Ill.).
We have previously shown that prophylactic (R,S)-ketamine attenuates helpless behavior in male mice (18). To validate these findings in females, female mice were administered saline, (R,S)-ketamine, or (2R,6R)-HNK one week prior to LH training (FIG. 4A). Two weeks later, mice were tested for escape latency and for depressive- and anxiety-like behaviors in the FST and elevated plus maze (EPM). CFC was again administered following these behavioral assays.

[2] = system: male mice; details: as previously shown; cited from earlier work
[3] = system: humans; details: sub-anesthetic doses, cited from earlier work
[4] = system: mice; details: sub-anesthetic doses; cited from earlier work
[5] = system: female 129S6/SvEv mice; test: Contextual fear conditioning (CFC), 3-shock, freezing in training and context re-exposure; details: for Freezing during 3-shock CFC training vs saline: 2.5, 10, or 30 mg/kg, 1 week before CFC; for Freezing during CFC re-exposure vs saline: vehicle condition; for Freezing during re-exposure to the CFC training context vs saline: single i.p. injection 1 week before 3-shock CFC, all doses; for Attenuation of learned fear: single injection 1 week before stressor
[6] = female mice, listed as (R, S)-ketamine
[7] = Contextual Fear Conditioning Re-exposure, Dunnett test Sal vs. drug (2.5), 1 week prophylactic drug
[8] = Contextual Fear Conditioning Re-exposure, Dunnett test Sal vs. drug (10), 1 week prophylactic drug
[9] = Contextual Fear Conditioning Re-exposure, Dunnett test Sal vs. drug (30), 1 week prophylactic drug
[10] = Contextual Fear Conditioning Training, Dunnett test Sal vs. drug (2.5), 1 week prophylactic drug
[11] = Contextual Fear Conditioning Training, Dunnett test Sal vs. drug (10), 1 week prophylactic drug
[12] = Contextual Fear Conditioning Training, Dunnett test Sal vs. drug (30), 1 week prophylactic drug
[13] = Ovariectomized cohort, 1 week prophylactic drug, Contextual Fear Conditioning Re-exposure, FIG. 10B, Sham mice, K (10), (2R,6R)-HNK (0.025)
[14] = Ovariectomized cohort, 1 week prophylactic drug, Contextual Fear Conditioning Re-exposure, FIG. 10C, Sham mice, K (10), (2R,6R)-HNK (0.025)
[15] = Ovariectomized, E2/P4 replacement, 1 week prophylactic drug, Contextual Fear Conditioning Re-exposure, FIG. 10E, Vehicle (hormone) mice, K (10), (2R,6R)-HNK (0.025)
[16] = Ovariectomized, E2/P4 replacement, 1 week prophylactic drug, Contextual Fear Conditioning Re-exposure, FIG. 10F, Vehicle (hormone) mice, K (10), (2R,6R)-HNK (0.025)
[17] = Ovariectomized, E2/P4 replacement, 1 week prophylactic drug, Contextual Fear Conditioning Training, FIG. 10D, Vehicle vs E2/P4, same drug, K (10), (2R,6R)-HNK (0.025)
[18] = Sal vs. K (2.5), Fisher's PLSD, 3 day prophylactic drug/Contextual Fear Conditioning Training
[19] = Sal vs. K (10), Fisher's PLSD, 1 week prophylactic drug, learned helplessness stress, Contextual Fear Conditioning Re-exposure
[20] = Sal vs. K (10), Fisher's PLSD, 3 day prophylactic drug/Contextual Fear Conditioning Training
[21] = Sal vs. K (10), Fisher's PLSD, Stress, antidepressant drug/Contextual Fear Conditioning Training

With CNC1(c2ccccc2Cl)CCCCC1=O (racemic) [(R,S)-ketamine, (RS)-2-(2-chlorophenyl)-2-(methylamino)cyclohexanone] the “* (significance), Sal vs. drug, Fisher's PLSD: Time in Closed Arms Average (min 1-6), Elevated Plus Maze” value [1] was “* (* p<0.05)”, the “* (significance), Sal vs. drug, Fisher's PLSD: Time in Open Arms Average (min 1-6), Elevated Plus Maze” value [1] was “* (* p<0.05)” and the “P, Sal vs. drug, Fisher's PLSD: Time in Closed Arms Average (min 1-6), Elevated Plus Maze” value [1] was 0.0186. The “P, Sal vs. drug, Fisher's PLSD: Time in Open Arms Average (min 1-6), Elevated Plus Maze” value [1] was 0.0147, the “Prophylactically effective dose in males” value [2] was 30 mg/kg and the Antidepressant onset ([3]; humans) was 2 h. For the same molecule, the “Duration of antidepressant effect” value [3] was “up to 2 weeks”, the Antidepressant onset [4] was 30 min and the “p, Sal vs. drug, Dunnett test: Freezing (Average), Contextual Fear Conditioning Re-exposure” value (from here on “p, Sal vs. drug, Dunnett test: Freezing”) ([5]; 2.5 mg/kg, 1 week prophylactic drug) was 0.7546. The “p, Sal vs. drug, Dunnett test: Freezing” value ([5]; 10 mg/kg, 1 week prophylactic drug) was 0.8986, the “p, Sal vs. drug, Dunnett test: Freezing” value ([5]; 30 mg/kg, 1 week prophylactic drug) was 0.8647 and the “Freezing during 3-shock CFC training vs saline” value ([5]; female mice) was “did not alter freezing”. For the same molecule, the “Freezing during 3-shock CFC training vs saline” value [5, 6] was “did not alter fear encoding”, the “Freezing during CFC training vs saline” value ([5]; 2.5 and 10 mg/kg, 3 days before CFC, female mice) was “significantly increased freezing compared to saline” and the “Freezing during CFC training vs saline” value ([5]; 2.5 and 10 mg/kg, 3 days before CFC, female mice; listed as R,S)-ketamine) was “significantly increased freezing during the last minute”. The “Freezing during context re-exposure vs saline” value ([5]; 3 days before CFC, female mice) was “do not affect freezing during re-exposure”, the “p, Freezing (min 1-5)” value [5, 7] was 0.7546 and the “p, Freezing (min 2)” value [5, 7] was 0.9996. For the same molecule, the “p, Freezing (min 3)” value [5, 7] was 0.6267, the “p, Freezing (min 4)” value [5, 7] was 0.1951 and the “p, Freezing (min 5)” value [5, 7] was 0.4912. The “p, Freezing (min 1-5)” value [5, 8] was 0.8986, the “p, Freezing (min 2)” value [5, 8] was 0.9240 and the “p, Freezing (min 3)” value [5, 8] was 0.9864. The “p, Freezing (min 4)” value [5, 8] was 0.6904, the “p, Freezing (min 5)” value [5, 8] was 0.6667 and the “p, Freezing (min 1-5)” value [5, 9] was 0.8647. For the same molecule, the “p, Freezing (min 2)” value [5, 9] was 0.6079, the “p, Freezing (min 3)” value [5, 9] was 0.8139 and the “p, Freezing (min 4)” value [5, 9] was 0.9885. The “p, Freezing (min 5)” value [5, 9] was 0.9996, the “p, Freezing (min 1-5)” value [5, 10] was 0.5398 and the “p, Freezing (min 4)” value [5, 10] was 0.9957. The “p, Freezing (min 5)” value [5, 10] was 0.2720, the “p, Freezing (min 1-5)” value [5, 11] was greater than 0.9999 and the “p, Freezing (min 4)” value [5, 11] was 0.9996. The “p, Freezing (min 5)” value [5, 11] was 0.9996, the “p, Freezing (min 1-5)” value [5, 12] was 0.9998 and the “p, Freezing (min 4)” value [5, 12] was greater than 0.9999. The “p, Freezing (min 5)” value [5, 12] was 0.9997, the “p, Freezing (min 1-5), Fisher's PLSD, OVX Sal vs OVX drug” value ([5]; Ovariectomized cohort, 1 week prophylactic drug, Contextual Fear Conditioning Re-exposure, FIG. 10B, OVX mice, K (10), (2R,6R)-HNK (0.025)) was 0.1532 and the “* (significance), Freezing (min 1-5), Fisher's PLSD, Sham Sal vs Sham drug” value [5, 13] was “* (* p<0.05)”. For the same molecule, the “p, Freezing (min 1-5), Fisher's PLSD, Sham Sal vs Sham drug” value [5, 13] was 0.0290, the “p, Freezing (min 1-5), Fisher's PLSD, Sham drug vs OVX drug” value ([5]; Ovariectomized cohort, 1 week prophylactic drug, Contextual Fear Conditioning Re-exposure, FIG. 10B, Sham vs OVX, same drug, K (10), (2R,6R)-HNK (0.025)) was 0.7813 and the “p, Freezing Average (min 1-5), Fisher's PLSD, OVX Sal vs OVX drug” value ([5]; Ovariectomized cohort, 1 week prophylactic drug, Contextual Fear Conditioning Re-exposure, FIG. 10C, OVX mice, K (10), (2R,6R)-HNK (0.025)) was 0.1532. For the same molecule, the “* (significance), Freezing Average (min 1-5), Fisher's PLSD, Sham Sal vs Sham drug” value [5, 14] was “* (* p<0.05)”, the “p, Freezing Average (min 1-5), Fisher's PLSD, Sham Sal vs Sham drug” value [5, 14] was 0.0290 and the “p, Freezing Average (min 1-5), Fisher's PLSD, Sham drug vs OVX drug” value ([5]; Ovariectomized cohort, 1 week prophylactic drug, Contextual Fear Conditioning Re-exposure, FIG. 10C, Sham vs OVX, same drug, K (10), (2R,6R)-HNK (0.025)) was 0.7813. For the same molecule, the “p, Freezing (min 1-5), Fisher's PLSD, E2/P4 Sal vs E2/P4 drug” value ([5]; Ovariectomized, E2/P4 replacement, 1 week prophylactic drug, Contextual Fear Conditioning Re-exposure, FIG. 10E, E2/P4 mice, K (10), (2R,6R)-HNK (0.025)) was 0.7946, the “* (significance), Freezing (min 1-5), Fisher's PLSD, Vehicle Sal vs Vehicle drug” value [5, 15] was “** (** p<0.01)” and the “p, Freezing (min 1-5), Fisher's PLSD, Vehicle Sal vs Vehicle drug” value [5, 15] was 0.0077. For the same molecule, the “p, Freezing (min 1-5), Fisher's PLSD, Vehicle drug vs E2/P4 drug” value ([5]; Ovariectomized, E2/P4 replacement, 1 week prophylactic drug, Contextual Fear Conditioning Re-exposure, FIG. 10E, Vehicle vs E2/P4, same drug, K (10), (2R,6R)-HNK (0.025)) was 0.2095, the “p, Freezing Average (min 1-5), Fisher's PLSD, E2/P4 Sal vs E2/P4 drug” value ([5]; Ovariectomized, E2/P4 replacement, 1 week prophylactic drug, Contextual Fear Conditioning Re-exposure, FIG. 10F, E2/P4 mice, K (10), (2R,6R)-HNK (0.025)) was 0.7946 and the “* (significance), Freezing Average (min 1-5), Fisher's PLSD, Vehicle Sal vs Vehicle drug” value [5, 16] was “** (** p<0.01)”. The “p, Freezing Average (min 1-5), Fisher's PLSD, Vehicle Sal vs Vehicle drug” value [5, 16] was 0.0077, the “p, Freezing Average (min 1-5), Fisher's PLSD, Vehicle drug vs E2/P4 drug” value ([5]; Ovariectomized, E2/P4 replacement, 1 week prophylactic drug, Contextual Fear Conditioning Re-exposure, FIG. 10F, Vehicle vs E2/P4, same drug, K (10), (2R,6R)-HNK (0.025)) was 0.2095 and the “p, Freezing (min 1-5), Fisher's PLSD, E2/P4 Sal vs E2/P4 drug” value ([5]; Ovariectomized, E2/P4 replacement, 1 week prophylactic drug, Contextual Fear Conditioning Training, FIG. 10D, E2/P4 mice, K (10), (2R,6R)-HNK (0.025)) was 0.5725. The “p, Freezing (min 1-5), Fisher's PLSD, Vehicle Sal vs Vehicle drug” value ([5]; Ovariectomized, E2/P4 replacement, 1 week prophylactic drug, Contextual Fear Conditioning Training, FIG. 10D, Vehicle (hormone) mice, K (10), (2R,6R)-HNK (0.025)) was 0.1466, the “* (significance), Freezing (min 1-5), Fisher's PLSD, Vehicle drug vs E2/P4 drug” value [5, 17] was “** (** p<0.01)” and the “p, Freezing (min 1-5), Fisher's PLSD, Vehicle drug vs E2/P4 drug” value [5, 17] was 0.0004. For the same molecule, the “*, Freezing (min 5)” value [5, 18] was “* (* p<0.05)”, the “p, Freezing (min 5)” value [5, 18] was 0.0143 and the “*, Freezing (min 1)” value [5, 19] was “* (* p<0.05)”. For the same molecule, the “p, Freezing (min 1)” value [5, 19] was 0.0166, the “*, Freezing (min 5)” value [5, 20] was “** (** p<0.01)” and the “p, Freezing (min 5)” value [5, 20] was 0.0078. For the same molecule, the “p, Freezing (min 1-5)” value [5, 21] was 0.1932, the “p, Freezing (min 5)” value [5, 21] was 0.2639 and the “p, Freezing (min 5)” value ([5]; Sal vs. K (30), Fisher's PLSD, 3 day prophylactic drug/Contextual Fear Conditioning Training) was 0.0606. For the same molecule, the “Freezing during CFC Training, E2/P4+drug vs vehicle+drug” value ([5]; ovariectomized mice, hormone replacement) was “froze significantly more”, the “Freezing during CFC re-exposure vs saline” value ([5]; ovariectomized mice) was “displayed altered freezing” and the “Freezing during CFC re-exposure vs saline” value ([5]; ovariectomized mice, listed as (R, S)-ketamine) was “froze significantly less than saline mice”. The “Freezing during re-exposure to the CFC training context vs saline” value [5, 6] was “did not alter fear encoding or fear retrieval; also recorded: did not alter overall freezing”, the “Freezing during re-exposure to the CFC training context vs saline” value ([5]; female mice, listed as Racemic ketamine) was “do not significantly alter freezing” and the “Attenuation of learned fear” value ([5]; female mice) was “do not attenuate learned fear”. For the same molecule, the “Attenuation of learned fear” value [5, 6] was “do not attenuate learned fear; also recorded: do not alter learned fear”.
